In paper PMC2222952, “Structural and Biochemical Bases for the Inhibition of Autophagy and Apoptosis by Viral BCL-2 of Murine γ-Herpesvirus 68” (PLoS Pathogens, 2008):
Entries after “also recorded” stand apart in the source; their conditions may differ. Ends that are not written are not given here.

T1: M11, viral BCL-2 of murine γ-herpesvirus 68 (residues 1–137) (Murid herpesvirus 4, UniProt P89884)
T1 construct: Each of the DNA fragments coding for M11 (residues 1–137); His6 tag; This is inferred: pPROEX HTa encodes an N-terminal His tag with a TEV site, and purification was on Ni-NTA; (N); made in house; host or cells: E. coli BL21(DE3)
T1 sequence (P89884 whole entry, looked up): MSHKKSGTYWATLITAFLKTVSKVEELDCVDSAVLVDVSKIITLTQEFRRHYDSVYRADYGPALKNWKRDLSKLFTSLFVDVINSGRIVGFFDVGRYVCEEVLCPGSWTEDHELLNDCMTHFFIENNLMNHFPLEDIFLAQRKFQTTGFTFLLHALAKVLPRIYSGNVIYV

T2: mouse BAD (residues 43–204) (mouse, UniProt Q61337 43-204)
T2 sequence (looked up): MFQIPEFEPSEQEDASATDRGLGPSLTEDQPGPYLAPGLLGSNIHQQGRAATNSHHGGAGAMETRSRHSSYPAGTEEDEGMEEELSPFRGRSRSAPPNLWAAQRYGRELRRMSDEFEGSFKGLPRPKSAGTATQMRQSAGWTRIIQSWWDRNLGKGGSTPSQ

T3: M11 (residues 1–137), purified alone (murine γ-herpesvirus 68, UniProt P89884 1-137)
T3 chain: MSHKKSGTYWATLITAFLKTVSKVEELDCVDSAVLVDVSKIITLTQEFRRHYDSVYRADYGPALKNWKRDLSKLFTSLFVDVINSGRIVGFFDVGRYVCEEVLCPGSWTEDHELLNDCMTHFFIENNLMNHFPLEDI

T4: M11 (residues 1–137), coexpressed with Beclin1(101–150) (murine γ-herpesvirus 68, UniProt P89884 1-137)
T4 sequence: T3 chain

B1: mouse BCL-XL (residues 1–44 and 85–196) (domain or fragment, UniProt Q64373-1 1-196, looked up)
chain: MSQSNRELVVDFLSYKLSQKGYSWSQFSDVEENRTEAPEETEAEAVKQALREAGDEFELRYRRAFSDLTSQLHITPGTAYQSFEQVVNELFRDGVNWGRIVAFFSFGGALCVESVDKEMQVLVSRIASWMATYLNDHLEPWIQENGGWDTFVDLYG
notes: also called BCL-XL lacking the internal long loop and the C-terminal tail region
B2: BMF BH3 peptide, 24-mer (residues 214–237 of BMF) (peptide)
chain: HRAEVQIARKLQCIADQFHRLHTQ
B3: Beclin1(101–150) (domain or fragment, mouse, UniProt O88597 101-150, looked up)
chain: ASDGGTMENLSRRLKVTGDLFDIMSGQTDVDHPLCEECTDTLLDQLDTQL
notes: also called mouse Beclin1 fragment consisting of residues 101–150; 50-residue Beclin1 fragment

Tests used:
A1 ∆C20 = tested on: A1 ∆C20; set-up: method as in earlier work; settings: Table S1; relative values, not absolute KD; peptides of Chen et al. are the same as or 1 to 2 residues shorter than those of this paper; read-out: binding affinity for A1 ∆C20 (relative value, competitive binding assay); cited from earlier work
BCL-2 ∆C22 = tested on: BCL-2 ∆C22; set-up: method as in earlier work; settings: Table S1; relative values, not absolute KD; peptides of Chen et al. are the same as or 1 to 2 residues shorter than those of this paper; read-out: binding affinity for BCL-2 ∆C22 (relative value, competitive binding assay); cited from earlier work
[1] = tested on: M11–Beclin1(101–267) complex; experiment: Displacement test on M11–Beclin1(101–267) complex; assay type: binding, murine γ-herpesvirus 68; settings: M11 mixed with Beclin1(101–267) at 1:1 molar ratio, 1 h; BH3 peptide added, additional 1 h; gel
Excerpt: (§1) A newly identified function of BCL-2 is the down regulation of autophagy through their inhibitory binding to Beclin1, which appears critical for cellular homeostasis. […] The weak interaction explains the recent observation that endogenous BH3-only proteins induce autophagy by displacing Beclin1 from BCL-2/BCL-XL [31]. Like the cellular kin, two viral BCL-2 proteins from γHV68 and KSHV are known to inhibit autophagy in addition to suppressing apoptotic death of cells. In this study, we provided the structural basis for the inhibitory interaction of M11 with Beclin1, which is reminiscent of the canonical interaction between a BH3 peptide and a BH3-binding groove. […] As a confirmatory experiment, we carried out a displacement test, where a complex between two proteins was challenged by another protein. […] Conceivably, M11 could negate the proautophagic role of the BH3-only proteins under apoptosis-inducing conditions in contrast with BCL-2/BCL-XL.
The complexes between each of the BH3 peptides and BCL-2 or BCL-XL appeared. The numbers above the gels indicate the final concentrations of the indicated proteins and peptides. The schematic drawings are shown to help to understand the experimental scheme and results. (1.8 MB TIF) Click here for additional data file.

BCL-XL ∆C24 = settings: Table S1; relative values, not absolute KD; peptides of Chen et al. are the same as or 1 to 2 residues shorter than those of this paper; read-out: binding affinity for BCL-XL ∆C24 (relative value, competitive binding assay); cited from earlier work
BCL-w ∆C29 = settings: Table S1; relative values, not absolute KD; peptides of Chen et al. are the same as or 1 to 2 residues shorter than those of this paper; read-out: binding affinity for BCL-w ∆C29 (relative value, competitive binding assay); cited from earlier work
[2] = biological target: T1, M11, viral BCL-2 of murine γ-herpesvirus 68 (residues 1–137); assay type: binding; settings: 25 °C, 20 mM Tris-HCl (pH 7.4), 100 mM NaCl
Excerpt: “HT”, “CCD” and “ECD” denote hydrophobic tail, coiled-coil domain and evolutionarily conserved domain, respectively. […] The surface coloring scheme is as follows: olive for Val, Leu, Ile, Phe, Trp, Met, and Ala; yellow for Cys, Gly, Tyr, and Pro; gray for other amino acids. […] Only the BH3-binding groove region of M11 is shown for clarity. […] The arrows indicate the movements of the Cα atoms of Asp59 and Tyr60 in M11. (C) ITC analysis.
Figure 5 Analyses of the Interactions between M11 or BCL-2 Proteins and BAX/BAK (A) Cell-based binding assay. 293T cells were transfected with HA-tagged BAK or Flag-tagged BAX together with the indicated GST-tagged prosurvival BCL-2 proteins. Whole cell lysates were used for immunoprecipitation with anti-GST followed by immunoblotting with anti-HA or anti-Flag. […] (B) ITC analyses of the interactions of M11 with the BH3 peptides of BAX or BAK. The ITC analysis was carried out by titrating 0.1 mM of the indicated peptides into 5 μM of M11. The ITC run for the titration of the 26-mer BAK peptide is shown. […] NIH3T3 cells were transfected with HA-tagged M11 and whole cell lysates were used for immunoprecipitation with control rabbit serum or anti-BAK followed by immunoblotting with anti-HA.
A plasmid containing the DNA segment coding for human BCL-2 (residues 1–50 and 92–207) was also constructed. The resulting protein lacks the internal long loop (residues 51–91) and contains a replacement of residues 35–50 with residues 33–48 of BCL-XL, which was necessary for the solubility of the protein as reported earlier. Each construct was introduced into the E. coli BL21(DE3) strain. The proteins were expressed at 21 °C overnight and purified using a Ni-NTA column and a Hitrap Q anion exchange column.
All measurements were carried out at 25 °C on a MicroCalorimetry System (MicroCal). Protein samples were dialyzed against the solution containing 20 mM Tris-HCl (pH 7.4) and 100 mM NaCl. The samples were degassed for 20 min and centrifuged to remove any residuals prior to the measurements. Dilution enthalpies were measured in separate experiments (titrant into buffer) and subtracted from the enthalpies of the binding between the protein and the titrant. Data were analyzed using the Origin software (OriginLab Corp.).

[3] = tested on: BCL-2–Beclin1(101–267) complex; experiment: Displacement test on BCL-2–Beclin1(101–267) complex; assay type: binding, human; settings: BCL-2 mixed with Beclin1(101–267) at 1:4 molar ratio, 1 h; BH3 peptide added; gel
Excerpt: as §1
(§2) Each of the DNA fragments coding for M11 (residues 1–137), mouse BCL-XL (residues 1–44 and 85–196) or mouse Beclin1 (residues 101–267) was cloned into pPROEX HTa. A plasmid containing the DNA segment coding for human BCL-2 (residues 1–50 and 92–207) was also constructed. […]

[4] = tested on: BCL-XL–Beclin1(101–267) complex; experiment: Displacement test on BCL-XL–Beclin1(101–267) complex; assay type: binding, mouse; settings: BCL-XL mixed with Beclin1(101–267) at 1:4 molar ratio, 1 h; BH3 peptide added; gel
Excerpt: as §1, §2

MCL ∆N151 ∆C23 = tested on: MCL ∆N151 ∆C23; set-up: method as in earlier work; settings: Table S1; relative values, not absolute KD; peptides of Chen et al. are the same as or 1 to 2 residues shorter than those of this paper; read-out: binding affinity for MCL ∆N151 ∆C23 (relative value, competitive binding assay); cited from earlier work
Beclin1 peptide = Beclin1 peptide (UniProt Q14457); settings: cited from earlier work
[5] = biological target: T2, mouse BAD (residues 43–204); experiment: crystal structure; BCL-XL (1–44, 85–196) coexpressed and co-purified with BAD(43–204); hanging drop, 4 °C, 10% PEG 1000, 10% PEG 8000; 2.3 Å; settings: both partners purified
[6] = biological target: T3, M11 (residues 1–137), purified alone; experiment: ITC
[7] = biological target: T4, M11 (residues 1–137), coexpressed with …; experiment: crystal structure; settings: both partners purified

Molecule | IC50 (A1 ∆C20) [nM] | IC50 (BCL-2 ∆C22) [nM] | IC50 (BCL-XL ∆C24) [nM] | IC50 (BCL-w ∆C29) [nM] | also measured
CC[C@H](C)[C@H](NC(=O)[C@H](CCCCN)NC(=O)[C@H](CCCNC(=N)N)NC(=O)[C@H](CC(C)C)NC(=O)[C@H](CCC(N)=O)NC(=O)[C@H](C)NC(=O)[C@H](C)NC(=O)[C@H](Cc1ccccc1)NC(=O)[C@H](CCC(=O)O)NC(=O)[C@@H]1CCCN1C(=O)[C@@H]1CCCN1C(=O)[C@H](CC(C)C)NC(=O)[C@H](CCC(=O)O)NC(=O)[C@H](C)NC(=O)[C@@H](N)CCCNC(=N)N)C(=O)NCC(=O)N[C@@H](CC(=O)O)C(=O)N[C@@H](CCCCN)C(=O)N[C@H](C(=O)N[C@@H](Cc1ccc(O)cc1)C(=O)N[C@@H](CS)C(=O)N[C@H](C(=O)N[C@@H](Cc1c[nH]c2ccccc12)C(=O)N[C@@H](CO)C(=O)N[C@@H](C)C(=O)N1CCC[C@H]1C(=O)O)[C@@H](C)O)C(C)C [Noxa] | 180 | > 100000 | > 100000 | > 100000 | displacement of Beclin1(101–267) bound to M11 by BH3 peptide [1]: remained intact; also recorded: failed to displace
BAD: synthetic 27-mer BH3 peptide, residues 137–163 of BAD (TATQMRQSSSWTRVFQSWWDRNLGRGS; BH3 peptide; UniProt Q92934 137-163, looked up, fragment) | 15000 | 16 | 5.3 | 30 | interaction with M11 in ITC, in words (KD could not be deduced) [2]: did not interact or poorly interacted; displacement of Beclin1(101–267) bound to BCL-2 by BH3 peptide [3]: easily disrupted; displacement of Beclin1(101–267) bound to BCL-XL by BH3 peptide [4]: easily disrupted; IC50 (MCL ∆N151 ∆C23): > 100000 nM
BCL-XL (from UniProt Q07817) | – | – | – | – | Kd (Beclin1 peptide): 1100 nM
EEIIHNIARHLAQIGDEMDHNIQPT [BID] | 9.3 | 6800 | 82 | 40 | displacement of Beclin1(101–267) bound to M11 by BH3 peptide [1]: remained intact; also recorded: failed to displace
B1 | – | – | – | – | binding result [5]: binds
B2 | – | – | – | – | Kd [6]: 300 nM
B3 | – | – | – | – | binding result [7]: binds
